# Experimental data from US7727736B2, “Soluble phospholipids for use in clotting factor assays” (The University of North Carolina at Chapel Hill, priority 2003, dated 2010).
# Columns and labels:
# [1] = test system: plasma; test: Activated partial thromboplastin time (aPTT) assay; assay type: biochemical
# Protocol: Activated partial thromboplastin time assays were done using an optical detection method to determine clotting time. Two reaction mixtures were created. Mixture A had kaolin in concentrations ranging from 50 g/L to 500 g/L and either phospholipid vesicles (ranging from 0.67 to 240 μM) or C6PS (ranging from 5 μM to 5250 μM) in buffer of 20 mM HEPES (pH 7.4), 150 mM NaCl. Mixture B was 25 mM calcium chloride in a buffer of 20 mM HEPES (pH 7.4), 150 mM NaCl. Plasma, Mixture A, and Mixture B were all incubated at 37° C. for 3 minutes. Mixture A was added to plasma and incubated for 3 minutes at 37° C. Buffer B was added and the optical density was measured. Clotting was detected as an increase in absorbance.
# As expected, lipid vesicles shortened the Kaolin induced clotting time in a dose-dependent fashion by as much as 100 seconds. C6PS gave a dose dependent shortening in the clotting time, but the largest decrease was 13 seconds. We speculated that the Kaolin might interfere with C6PS. Since the purpose of Kaolin is to activate the contact factors of coagulation (high molecular weight kininogen, factor XII, and factor XI), we substituted 30 nM activated factor XI for Kaolin in the assay described above.
# [2] = biological target: T1, FVa2 (Homo sapiens, UniProt P12259); test: Native gel electrophoresis (Ferguson analysis), C6PS bound to FVa2; assay type: binding; settings: 400 μM C6PS
# T1 construct: from tissue; host or cells: fresh frozen human plasma (American Red Cross Center, Durham, N.C.)
# T1 sequence (P12259 29-737 limits assumed): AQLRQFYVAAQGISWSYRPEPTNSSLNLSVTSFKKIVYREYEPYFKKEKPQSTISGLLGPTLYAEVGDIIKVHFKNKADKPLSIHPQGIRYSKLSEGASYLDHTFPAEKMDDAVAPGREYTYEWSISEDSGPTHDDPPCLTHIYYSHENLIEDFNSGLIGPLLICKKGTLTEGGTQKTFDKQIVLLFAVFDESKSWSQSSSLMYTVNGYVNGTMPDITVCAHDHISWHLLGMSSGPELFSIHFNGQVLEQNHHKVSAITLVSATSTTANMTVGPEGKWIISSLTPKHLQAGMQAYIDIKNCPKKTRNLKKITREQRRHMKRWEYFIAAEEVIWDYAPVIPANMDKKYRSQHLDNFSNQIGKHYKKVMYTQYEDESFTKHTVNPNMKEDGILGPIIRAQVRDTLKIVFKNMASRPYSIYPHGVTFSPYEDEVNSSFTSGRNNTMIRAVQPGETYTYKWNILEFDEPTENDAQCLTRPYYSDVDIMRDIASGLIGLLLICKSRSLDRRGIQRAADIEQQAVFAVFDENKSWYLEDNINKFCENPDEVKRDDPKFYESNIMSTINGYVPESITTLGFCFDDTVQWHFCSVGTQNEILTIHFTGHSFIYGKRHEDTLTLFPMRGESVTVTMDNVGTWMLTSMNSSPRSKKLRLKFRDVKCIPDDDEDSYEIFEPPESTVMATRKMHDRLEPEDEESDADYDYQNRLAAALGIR
# T1 sequence (P12259 1574-2224 limits assumed): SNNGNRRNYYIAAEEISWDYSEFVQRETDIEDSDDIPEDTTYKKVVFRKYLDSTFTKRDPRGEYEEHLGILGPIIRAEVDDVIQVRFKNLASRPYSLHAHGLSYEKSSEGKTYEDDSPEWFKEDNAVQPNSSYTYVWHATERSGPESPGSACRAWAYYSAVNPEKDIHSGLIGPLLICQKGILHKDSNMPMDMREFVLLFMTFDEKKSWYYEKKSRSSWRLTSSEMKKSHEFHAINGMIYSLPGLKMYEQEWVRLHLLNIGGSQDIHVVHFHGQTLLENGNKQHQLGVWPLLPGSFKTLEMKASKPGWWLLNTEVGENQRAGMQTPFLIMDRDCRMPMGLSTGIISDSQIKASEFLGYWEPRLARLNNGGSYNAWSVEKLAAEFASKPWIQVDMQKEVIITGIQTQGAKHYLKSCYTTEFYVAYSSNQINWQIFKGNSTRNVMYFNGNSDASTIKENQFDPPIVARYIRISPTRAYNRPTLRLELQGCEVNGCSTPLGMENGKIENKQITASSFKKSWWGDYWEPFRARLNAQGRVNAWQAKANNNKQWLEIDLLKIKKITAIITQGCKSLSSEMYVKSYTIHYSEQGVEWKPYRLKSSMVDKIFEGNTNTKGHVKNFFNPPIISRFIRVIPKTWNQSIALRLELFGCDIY
# Protocol: Native Gel Electrophoresis. This method has been used to document the association of blood coagulation proteins in solution (Majumder, et al. (2002) supra; Majumder, et al. (2003) supra). A mixture of 1 nM FXa and 1 nM FVa was incubated at 37° C. for 2 minutes in the presence and absence of 400 μM C6PS and the two samples were run together with known marker proteins (270 kiloDalton-14.2 kiloDalton; SIGMA, St. Louis, Mo.) on five gels (5, 6, 6.5, 7, and 8% total acrylamide with bisacrylamide/acrylamide being 1/29 in all cases) in a BIORAD® MINI-PROTEAN® II minigel apparatus (BIORAD® Corp., Hercules, Calif.) and stained with colloidal Coomassie blue (Mitra, et al. (1994) supra). FXa and FVa, at these same concentrations and in the presence of 400 μM C6PS, were run separately as controls. Protein retardation coefficients, which depend to a good approximation only on the hydrodynamic size and shape of the protein, were determined for both the marker and unknown proteins (Ferguson (1964) Metabolism 13:985-1002). A log-log plot of the retardation coefficient against the molecular weights of the marker proteins produced a linear curve from which the molecular weight of the FVa•FXa complex was determined from its measured retardation coefficient (Bryan (1977) Anal. Biochem. 78(2):513-9). […]
structure (smiles),measurement,setting,value
"CCCCCC(=O)OC[C@H](COP(=O)(O)OC[C@H](N)C(=O)O)OC(=O)CCCCC [C6PS, 1,2-dicaproyl-sn-glycero-3-phospho-L-serine]",maximal shortening of clotting time,[1]; 30 nM activated factor XI substituted for Kaolin,20 s
same,largest shortening of the Kaolin induced clotting time,[1]; Kaolin as activator,13 s
same,molecules of C6PS bound to FVa2 from molecular mass,[2],4.2 molecules
